A word on the Kd: it is the equilibrium constant for the complex coming apart. High values mean lower affinity, low ones higher affinity.

For this experiment, the target named is β-lactoglobulin (Bos taurus, UniProt P02754). Kind of experiment: isothermal titration calorimetry. The experiment is classed as binding. On the technique in general: In ITC the heat of successive injections is recorded.

Structures are written as SMILES.

β-lactoglobulin, sequence (P02754 17-178): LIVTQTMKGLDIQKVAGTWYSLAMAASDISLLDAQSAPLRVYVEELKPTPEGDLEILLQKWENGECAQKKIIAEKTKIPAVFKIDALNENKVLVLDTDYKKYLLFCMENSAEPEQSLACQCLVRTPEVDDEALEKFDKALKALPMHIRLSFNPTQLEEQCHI

With `CCCCCC(=O)OC[C@@H](O)COP(=O)(O)O` [HHGP, 1-hexanoyl-2-hydroxy-sn-glycero-3-phosphate], the dissociation constant (Kd) was found to be 1.4 µM.

The record behind these values is publication PMC3672471 (The Biochemical journal, 2009).
